For series [1], the system named is T1, non-glycated (HSA) and glycated (gHSAFRC) human serum albumin, Sudlow's site I and II.
T1 construct: human serum albumin (HSA, Lot No. 8234H) with fatty acids (fraction V) was purchased from MP Biomedicals LLC; purchased MP Biomedicals LLC (Illkirch, France) Lot No. 8234H (a lot number; no catalogue number given)
The series is described as follows: Binding of fluorescent site-marker probes to glycated versus non-glycated albumin (fluorimetric titration).

In another series the test system is plasma protein. As to conditions: cited from earlier work.
Setting [2] is: albumin 5 × 10^−6 mol∙L^−1 titrated with probe, 37 °C, Figure 7.

Each structure is given as a SMILES string. Like-named read-outs stand apart in the source and are kept apart here.

For `CC(=O)CC(c1ccccc1)c1c(O)c2ccccc2oc1=O` (centres unmarked) [WAR, warfarin], the “probe fluorescence / binding with gHSAFRC compared with HSA” value in series [1] was “stronger than with non-glycated albumin”.
As for `CN(C)c1cccc2c(S(=O)(=O)N3CCC[C@H]3C(=O)O)cccc12` [dPro, N-dansyl-L-proline], the “probe fluorescence / binding with gHSAFRC compared with HSA” value in series [1] (setting [2]) was “stronger for glycated than non-modified albumin”.
The same measure, in the same setting: under `CN(C)c1cccc2c(S(=O)(=O)N[C@@H](CCC(N)=O)C(=O)O)cccc12` [dGln, dansyl-L-glutamine] stands “stronger for glycated than non-modified albumin”.
Turning to `CCCCc1nc(Cl)c(CO)n1Cc1ccc(-c2ccccc2-c2nn[nH]n2)cc1` [LOS, (2-butyl-4-chloro-1-{[2′-(1H-tetrazol-5-yl)-4-biphenylyl]methyl}-1H-imidazol-5-yl)methanol], in the series on plasma protein, the “bound with plasma protein” value is listed as 98.6–98.8%.
Turning to `CN(C)c1cccc2c(S(N)(=O)=O)cccc12` [DNSA, 5-dimethylaminonaphthalene-1-sulfonamide], the “probe fluorescence / binding with gHSAFRC compared with HSA” value in series [1] (setting [2]) is reported as “no significant difference in the fluorescence intensity”.
